Laboratory results taken from patent publication US9512459B2 (priority 2011, dated 2016).

Key:
[1] = target: Sclerotinia sclerotiorum glucose dehydrogenase (FAD-GDH) Ssc-n1, wild type, SEQ ID NO: 1 (16 N-terminal residues deleted, Ser17 substituted by Met) (Sclerotinia sclerotiorum, UniProt A7F9L2); assay: GDH activity vs glucose, saturation curve (Ssc-n1); format: biochemical; conditions: crude enzyme, glucose 1-40 mM, pH 6.5, DCIP/PMS
Method: (§1) The transformant BL21 (DE3) expressing each mutated enzyme was precultured. The transformant was inoculated in an amount of 1% with respect to 60 ml of a medium A using a 300-ml baffled flask and shake-cultured under conditions involving 20° C., 28 hours, and 125 rpm. After collection of 50 ml of the medium, the bacterial cells were suspended by the addition of BugBuster (registered trademark) protein extraction reagent (Novagen/Merck KGaA) at a ratio of 5 ml per g of wet cells and incubated at room temperature for 15 minutes with gentle shaking. Insoluble fractions were removed by centrifugation (15 Krpm, 4° C., 20 minutes). Then, the obtained supernatant was dialyzed overnight at 4° C. against a 20 mM potassium phosphate buffer solution (pH 6.5). After the completion of the dialysis, the dialysate was centrifuged, and the supernatant was used as a crude enzyme preparation. Insoluble fractions were suspended in a 20 mM potassium phosphate buffer solution (pH 6.5) at a ratio of 1 ml per 2 ml of the suspension containing the insoluble fractions.
A small-scale expression system was used for some multiple-mutated enzymes. The transformant BL21 (DE3) expressing each mutated enzyme was precultured, and the transformant was inoculated in an amount of 1 vol % with respect to 3 ml of a medium A. The bacterial cells were shake-cultured at 37° C. for 4 hours and then shake-cultured at 20° C. for 20 hours. After the culture, 2 ml of the medium was collected, then suspended by the addition of 400 μl of BugBuster (registered trademark), and then shaken at room temperature for 15 minutes. Then, the suspension was centrifuged (15000 rpm, 4° C., 20 minutes), and the obtained supernatant was used as a crude enzyme preparation.
(§2) The GDH activity was measured in a DCIP (0.3 mM)/PMS (0.6 mM) system using a 20 mM potassium phosphate buffer solution (pH 6.5) as a buffer solution and glucose (Glc; 1, 2, 4, 10, 20, and 40 mM) and xylose (Xyl; 4 and 40 mM) as substrates.
(§3) The numeric values in the tables represent a mean of several data about specific activity (U/mg) and productivity (U/L) obtained under the same conditions with 40 mM glucose as a substrate. The obtained crude enzyme preparation was used to observe the correlation between the concentration of the substrate (glucose; 1, 2, 4, 10, 20, and 40 mM) and the activity. The obtained Michaelis-Menten constant (Km value) and apparent maximum activity (Vmax) were determined from a saturation curve determined therefrom.

[2] = target: Sclerotinia sclerotiorum glucose dehydrogenase (FAD-GDH) Ssc-n1 variant N191K/S529G, SEQ ID NO: 1 (Sclerotinia sclerotiorum, UniProt A7F9L2, N191K/S529G); conditions: 60 ml culture, crude enzyme; glucose 1-40 mM, pH 6.5, DCIP/PMS
Method: as §1, §2, §3

[3] = target: T1, Aspergillus niger glucose dehydrogenase (FAD-GDH) Ang-n1, wild type, SEQ ID NO: 2 (20 N-terminal residues deleted, Ala21 substituted by Met) (Aspergillus niger, UniProt A2QWL1); assay: GDH activity vs glucose, saturation curve (Ang-n1); format: biochemical; conditions: 60 ml culture, crude enzyme; glucose 1-40 mM, pH 6.5, DCIP/PMS
T1 construct: pET30c, E. coli BL21(DE3), crude extract
T1 sequence (A2QWL1 with tags, fused parts or gaps): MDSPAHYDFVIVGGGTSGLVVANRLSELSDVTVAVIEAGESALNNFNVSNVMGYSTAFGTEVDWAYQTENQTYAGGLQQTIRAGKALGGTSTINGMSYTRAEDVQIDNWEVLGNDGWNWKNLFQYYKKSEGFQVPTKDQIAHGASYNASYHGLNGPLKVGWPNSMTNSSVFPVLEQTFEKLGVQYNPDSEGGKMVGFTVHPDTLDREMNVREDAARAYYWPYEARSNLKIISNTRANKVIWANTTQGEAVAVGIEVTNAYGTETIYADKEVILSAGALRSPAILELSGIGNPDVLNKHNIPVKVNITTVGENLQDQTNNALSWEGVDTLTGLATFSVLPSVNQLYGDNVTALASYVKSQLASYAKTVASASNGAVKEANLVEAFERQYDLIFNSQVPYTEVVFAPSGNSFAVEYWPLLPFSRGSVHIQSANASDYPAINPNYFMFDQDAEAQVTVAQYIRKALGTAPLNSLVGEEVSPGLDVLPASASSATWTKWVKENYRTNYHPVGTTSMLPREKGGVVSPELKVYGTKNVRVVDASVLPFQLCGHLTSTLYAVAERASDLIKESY
Method: as §1, with “After the completion of the dialysis, the dialysate was centrifuged, and the supernatant was used as a crude enzyme preparation. Insoluble fractions were suspended in a 20 mM potassium phosphate buffer solution (pH 6.5) at a ratio of 1 ml per 2 ml of the suspension containing the insoluble fractions.” left out
as §2
as §3, with “The obtained crude enzyme preparation was used to observe the correlation between the concentration of the substrate (glucose; 1, 2, 4, 10, 20, and 40 mM) and the activity.” left out

[4] = target: T2, Aspergillus niger glucose dehydrogenase (FAD-GDH) Ang-n2, SEQ ID NO: 2 (26 N-terminal residues deleted, Met-Thr-Asp-Ser-Thr-Leu-Asn added) (Aspergillus niger, UniProt A2QWL1); assay: GDH activity vs glucose, saturation curve (Ang-n2); format: biochemical; conditions: crude enzyme, glucose 1-40 mM, pH 6.5, DCIP/PMS
T2 construct: pET30c, E. coli BL21(DE3), crude extract or purified (T9)
T2 sequence (A2QWL1 27-588): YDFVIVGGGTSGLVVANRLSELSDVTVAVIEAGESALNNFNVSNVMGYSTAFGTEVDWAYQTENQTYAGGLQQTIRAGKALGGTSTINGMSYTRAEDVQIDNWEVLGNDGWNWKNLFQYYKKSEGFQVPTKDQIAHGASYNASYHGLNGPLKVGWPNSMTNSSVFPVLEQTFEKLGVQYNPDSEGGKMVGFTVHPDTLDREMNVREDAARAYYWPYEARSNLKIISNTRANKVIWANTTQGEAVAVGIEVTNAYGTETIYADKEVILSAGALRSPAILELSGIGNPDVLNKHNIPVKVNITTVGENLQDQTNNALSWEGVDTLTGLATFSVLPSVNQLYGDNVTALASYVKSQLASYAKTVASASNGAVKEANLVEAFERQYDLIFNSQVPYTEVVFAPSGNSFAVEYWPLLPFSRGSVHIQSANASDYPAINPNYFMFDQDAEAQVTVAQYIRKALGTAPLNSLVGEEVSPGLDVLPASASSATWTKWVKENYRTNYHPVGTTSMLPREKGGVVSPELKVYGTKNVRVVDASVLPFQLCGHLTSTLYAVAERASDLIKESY
Method: as §1, with “After the completion of the dialysis, the dialysate was centrifuged, and the supernatant was used as a crude enzyme preparation. Insoluble fractions were suspended in a 20 mM potassium phosphate buffer solution (pH 6.5) at a ratio of 1 ml per 2 ml of the suspension containing the insoluble fractions.” left out
as §2
as §3, with “The obtained crude enzyme preparation was used to observe the correlation between the concentration of the substrate (glucose; 1, 2, 4, 10, 20, and 40 mM) and the activity.” left out

Question: What does the source list for `OC[C@H]1OC(O)[C@H](O)[C@@H](O)[C@@H]1O` (some centres unmarked) [glucose]?
Answer: Km ([1]; 3 ml culture): 14.3 mM; Vmax ([1]; 3 ml culture): 2.2 U/mg protein; Km ([1]; 60 ml culture): 16.6 mM; Vmax ([1]; 60 ml culture): 0.7 U/mg protein; Vmax [2]: 7.2 U/mg protein; Vmax [3]: 0.2 U/mg protein; Vmax ([4]; 3 ml culture (Table 8)): 1.5 U/mg protein; Vmax ([4]; 60 ml culture): 1.5 U/mg protein
